System: NHBE cells
Assay: Biolog metabolic array: substrate use by NHBE cells with or without CA09 infection
Format: cell-based, human
Conditions: for Substrate use, 590 nm absorbance normalized to zero hour, 0 hr: Biolog PMM2, 0 hr; for Substrate use, 590 nm absorbance normalized to zero hour, 1 hr: Biolog PMM2, 1 hr; for Substrate use, 590 nm absorbance normalized to zero hour, 5 hr: Biolog PMM2, 5 hr; for Substrate use, 590 nm absorbance normalized to zero hour, 7 hr: Biolog PMM2, 7 hr
[1] = Control (uninfected) NHBE cells
[2] = Virus (CA09-infected, MOI 1) NHBE cells
[3] = Virus: CA09-infected NHBE cells, MOI 1, Biolog PMM2
[4] = Virus (CA09, MOI 1) infected NHBE cells

CO[C@@H]1O[C@H](CO)[C@H](O)[C@H](O)[C@H]1O [b-Methyl-D-Galactoside]
590 nm absorbance normalized to zero hour (substrate use), 0 hr [1]: 1.00
590 nm absorbance normalized to zero hour (substrate use), 1 hr [1]: 0.52
590 nm absorbance normalized to zero hour (substrate use), 2 hr [1]: 0.68
590 nm absorbance normalized to zero hour (substrate use), 3 hr [1]: 0.78
590 nm absorbance normalized to zero hour (substrate use), 4 hr [1]: 0.87
590 nm absorbance normalized to zero hour (substrate use), 6 hr [1]: 1.28
590 nm absorbance normalized to zero hour (substrate use), 8 hr [1]: 1.24
590 nm absorbance normalized to zero hour (substrate use), 9 hr [1]: 1.36
590 nm absorbance normalized to zero hour (substrate use), 10 hr [1]: 1.54
590 nm absorbance normalized to zero hour (substrate use), 11 hr [1]: 1.61
Substrate use, 590 nm absorbance normalized to zero hour, 0 hr [1]: 1.00
Substrate use, 590 nm absorbance normalized to zero hour, 1 hr [1]: 0.52
Substrate use, 590 nm absorbance normalized to zero hour, 5 hr [1]: 1.05
Substrate use, 590 nm absorbance normalized to zero hour, 7 hr [1]: 1.17
590 nm absorbance normalized to zero hour (substrate use), 0 hr [2]: 1.00
590 nm absorbance normalized to zero hour (substrate use), 1 hr [2]: 0.74
590 nm absorbance normalized to zero hour (substrate use), 2 hr [2]: 0.95
590 nm absorbance normalized to zero hour (substrate use), 3 hr [2]: 1.11
590 nm absorbance normalized to zero hour (substrate use), 4 hr [2]: 1.18
590 nm absorbance normalized to zero hour (substrate use), 5 hr [2]: 1.36
590 nm absorbance normalized to zero hour (substrate use), 6 hr [2]: 1.45
590 nm absorbance normalized to zero hour (substrate use), 7 hr [2]: 1.52
590 nm absorbance normalized to zero hour (substrate use), 8 hr [2]: 1.60
590 nm absorbance normalized to zero hour (substrate use), 9 hr [2]: 1.76
590 nm absorbance normalized to zero hour (substrate use), 10 hr [2]: 1.81
590 nm absorbance normalized to zero hour (substrate use), 11 hr [2]: 1.96
590 nm absorbance normalized to zero hour (substrate use), 0 hr [3]: 1.00
590 nm absorbance normalized to zero hour (substrate use), 1 hr [3]: 0.74
590 nm absorbance normalized to zero hour (substrate use), 2 hr [3]: 0.95
590 nm absorbance normalized to zero hour (substrate use), 3 hr [3]: 1.11
590 nm absorbance normalized to zero hour (substrate use), 4 hr [3]: 1.18
590 nm absorbance normalized to zero hour (substrate use), 5 hr [3]: 1.36
590 nm absorbance normalized to zero hour (substrate use), 6 hr [3]: 1.45
590 nm absorbance normalized to zero hour (substrate use), 7 hr [3]: 1.52
590 nm absorbance normalized to zero hour (substrate use), 8 hr [3]: 1.60
590 nm absorbance normalized to zero hour (substrate use), 9 hr [3]: 1.76
590 nm absorbance normalized to zero hour (substrate use), 10 hr [3]: 1.81
590 nm absorbance normalized to zero hour (substrate use), 11 hr [3]: 1.96

CO[C@@H]1O[C@H](CO)[C@@H](O)[C@H](O)[C@H]1O [b-Methyl-D-Glucoside]
590 nm absorbance normalized to zero hour (substrate use), 0 hr [1]: 1.00
590 nm absorbance normalized to zero hour (substrate use), 1 hr [1]: 1.32
590 nm absorbance normalized to zero hour (substrate use), 2 hr [1]: 1.80
590 nm absorbance normalized to zero hour (substrate use), 3 hr [1]: 1.84
590 nm absorbance normalized to zero hour (substrate use), 4 hr [1]: 2.02
590 nm absorbance normalized to zero hour (substrate use), 6 hr [1]: 1.04
590 nm absorbance normalized to zero hour (substrate use), 8 hr [1]: 3.05
590 nm absorbance normalized to zero hour (substrate use), 9 hr [1]: 3.33
590 nm absorbance normalized to zero hour (substrate use), 10 hr [1]: 3.70
590 nm absorbance normalized to zero hour (substrate use), 11 hr [1]: 4.24
Substrate use, 590 nm absorbance normalized to zero hour, 0 hr [1]: 1.00
Substrate use, 590 nm absorbance normalized to zero hour, 1 hr [1]: 1.32
Substrate use, 590 nm absorbance normalized to zero hour, 5 hr [1]: 2.32
Substrate use, 590 nm absorbance normalized to zero hour, 7 hr [1]: 2.85
Substrate use, 590 nm absorbance normalized to zero hour, 0 hr [4]: 1.00
Substrate use, 590 nm absorbance normalized to zero hour, 1 hr [4]: 2.00
Substrate use, 590 nm absorbance normalized to zero hour, 5 hr [4]: 3.99
Substrate use, 590 nm absorbance normalized to zero hour, 7 hr [4]: 4.57
590 nm absorbance normalized to zero hour (substrate use), 0 hr [2]: 1.00
590 nm absorbance normalized to zero hour (substrate use), 1 hr [2]: 2.00
590 nm absorbance normalized to zero hour (substrate use), 2 hr [2]: 2.80
590 nm absorbance normalized to zero hour (substrate use), 3 hr [2]: 3.24
590 nm absorbance normalized to zero hour (substrate use), 4 hr [2]: 3.45
590 nm absorbance normalized to zero hour (substrate use), 6 hr [2]: 4.32
590 nm absorbance normalized to zero hour (substrate use), 8 hr [2]: 4.86
590 nm absorbance normalized to zero hour (substrate use), 9 hr [2]: 5.41
590 nm absorbance normalized to zero hour (substrate use), 10 hr [2]: 5.67
590 nm absorbance normalized to zero hour (substrate use), 11 hr [2]: 6.22

CO[C@@H]1OC[C@@H](O)[C@H](O)[C@H]1O [b-Methyl-D-Xyloside]
590 nm absorbance normalized to zero hour (substrate use), 0 hr [1]: 1.00
590 nm absorbance normalized to zero hour (substrate use), 1 hr [1]: 1.53
590 nm absorbance normalized to zero hour (substrate use), 2 hr [1]: 6.40
590 nm absorbance normalized to zero hour (substrate use), 3 hr [1]: 1.59
590 nm absorbance normalized to zero hour (substrate use), 4 hr [1]: 1.73
590 nm absorbance normalized to zero hour (substrate use), 6 hr [1]: 1.14
590 nm absorbance normalized to zero hour (substrate use), 8 hr [1]: 4.02
590 nm absorbance normalized to zero hour (substrate use), 9 hr [1]: 2.33
590 nm absorbance normalized to zero hour (substrate use), 10 hr [1]: 2.61
590 nm absorbance normalized to zero hour (substrate use), 11 hr [1]: 3.03
Substrate use, 590 nm absorbance normalized to zero hour, 0 hr [1]: 1.00
Substrate use, 590 nm absorbance normalized to zero hour, 1 hr [1]: 1.53
Substrate use, 590 nm absorbance normalized to zero hour, 5 hr [1]: 2.08
Substrate use, 590 nm absorbance normalized to zero hour, 7 hr [1]: 4.46
590 nm absorbance normalized to zero hour (substrate use), 0 hr [2]: 1.00
590 nm absorbance normalized to zero hour (substrate use), 1 hr [2]: 1.92
590 nm absorbance normalized to zero hour (substrate use), 2 hr [2]: 2.38
590 nm absorbance normalized to zero hour (substrate use), 3 hr [2]: 2.79
590 nm absorbance normalized to zero hour (substrate use), 4 hr [2]: 2.82
590 nm absorbance normalized to zero hour (substrate use), 5 hr [2]: 3.12
590 nm absorbance normalized to zero hour (substrate use), 6 hr [2]: 3.28
590 nm absorbance normalized to zero hour (substrate use), 7 hr [2]: 3.39
590 nm absorbance normalized to zero hour (substrate use), 8 hr [2]: 3.52
590 nm absorbance normalized to zero hour (substrate use), 9 hr [2]: 3.77
590 nm absorbance normalized to zero hour (substrate use), 10 hr [2]: 3.87
590 nm absorbance normalized to zero hour (substrate use), 11 hr [2]: 4.01
590 nm absorbance normalized to zero hour (substrate use), 0 hr [3]: 1.00
590 nm absorbance normalized to zero hour (substrate use), 1 hr [3]: 1.92
590 nm absorbance normalized to zero hour (substrate use), 2 hr [3]: 2.38
590 nm absorbance normalized to zero hour (substrate use), 3 hr [3]: 2.79
590 nm absorbance normalized to zero hour (substrate use), 4 hr [3]: 2.82
590 nm absorbance normalized to zero hour (substrate use), 5 hr [3]: 3.12
590 nm absorbance normalized to zero hour (substrate use), 6 hr [3]: 3.28
590 nm absorbance normalized to zero hour (substrate use), 7 hr [3]: 3.39
590 nm absorbance normalized to zero hour (substrate use), 8 hr [3]: 3.52
590 nm absorbance normalized to zero hour (substrate use), 9 hr [3]: 3.77
590 nm absorbance normalized to zero hour (substrate use), 10 hr [3]: 3.87
590 nm absorbance normalized to zero hour (substrate use), 11 hr [3]: 4.01

NCCCC(=O)O [g-Amino Butyric Acid]
590 nm absorbance normalized to zero hour (substrate use), 0 hr [1]: 1.00
590 nm absorbance normalized to zero hour (substrate use), 1 hr [1]: 1.25
590 nm absorbance normalized to zero hour (substrate use), 3 hr [1]: 1.42
590 nm absorbance normalized to zero hour (substrate use), 4 hr [1]: 1.47
590 nm absorbance normalized to zero hour (substrate use), 6 hr [1]: 3.94
590 nm absorbance normalized to zero hour (substrate use), 8 hr [1]: 1.09
590 nm absorbance normalized to zero hour (substrate use), 9 hr [1]: 2.20
590 nm absorbance normalized to zero hour (substrate use), 10 hr [1]: 1.13
590 nm absorbance normalized to zero hour (substrate use), 11 hr [1]: 2.55
Substrate use, 590 nm absorbance normalized to zero hour, 0 hr [1]: 1.00
Substrate use, 590 nm absorbance normalized to zero hour, 1 hr [1]: 1.25
Substrate use, 590 nm absorbance normalized to zero hour, 5 hr [1]: 1.52
Substrate use, 590 nm absorbance normalized to zero hour, 7 hr [1]: 1.05
590 nm absorbance normalized to zero hour (substrate use), 0 hr [2]: 1.00
590 nm absorbance normalized to zero hour (substrate use), 1 hr [2]: 1.68
590 nm absorbance normalized to zero hour (substrate use), 2 hr [2]: 2.39
590 nm absorbance normalized to zero hour (substrate use), 3 hr [2]: 2.83
590 nm absorbance normalized to zero hour (substrate use), 4 hr [2]: 2.96
590 nm absorbance normalized to zero hour (substrate use), 5 hr [2]: 3.40
590 nm absorbance normalized to zero hour (substrate use), 6 hr [2]: 3.56
590 nm absorbance normalized to zero hour (substrate use), 7 hr [2]: 3.70
590 nm absorbance normalized to zero hour (substrate use), 8 hr [2]: 3.84
590 nm absorbance normalized to zero hour (substrate use), 9 hr [2]: 3.99
590 nm absorbance normalized to zero hour (substrate use), 10 hr [2]: 3.94
590 nm absorbance normalized to zero hour (substrate use), 11 hr [2]: 3.74
590 nm absorbance normalized to zero hour (substrate use), 0 hr [3]: 1.00
590 nm absorbance normalized to zero hour (substrate use), 1 hr [3]: 1.68
590 nm absorbance normalized to zero hour (substrate use), 2 hr [3]: 2.39
590 nm absorbance normalized to zero hour (substrate use), 3 hr [3]: 2.83
590 nm absorbance normalized to zero hour (substrate use), 4 hr [3]: 2.96
590 nm absorbance normalized to zero hour (substrate use), 5 hr [3]: 3.40
590 nm absorbance normalized to zero hour (substrate use), 6 hr [3]: 3.56
590 nm absorbance normalized to zero hour (substrate use), 7 hr [3]: 3.70
590 nm absorbance normalized to zero hour (substrate use), 8 hr [3]: 3.84
590 nm absorbance normalized to zero hour (substrate use), 9 hr [3]: 3.99
590 nm absorbance normalized to zero hour (substrate use), 10 hr [3]: 3.94
590 nm absorbance normalized to zero hour (substrate use), 11 hr [3]: 3.74
